US20110257186A1, “COMPOSITIONS AND METHODS FOR TREATING VISUAL DISORDERS” (priority 2010, published 2011)
“Also recorded” adds a separate entry of the source.

Test system: rat visual cortex
Assay: LTP in visual cortex slice
Settings: rat primary visual cortex brain slices; fEPSP amplitude after theta burst stimulation; drug infused 20 minutes before LTP induction
Text: The effect of the Ampakine, i.e. benzo[1,2,5]oxadiazol-5-yl-piperidin-1-yl-methanone, in the visual cortex was investigated using brain slices prepared from primary visual cortex to determine if this compound facilitates the induction of long-term potentiation (LTP). LTP is a well established cellular model for synaptic plasticity and the encoding of information. The visual cortex is one synapse removed from the eye and integrates visual signals generated by the retina. It is thus essential for decoding, processing and transforming visual inputs originating in the eye, and proper visual cortical function is necessary for normal vision.
Following decapitation of the anesthetized rat, the brain was rapidly removed and immersed in ice-cold artificial cerebrospinal fluid (ACSF) containing (in mM) NaCl 124, KCl 3, KH2PO4 1.25, CaCl2 3.4, MgSO4 2.5, NaHCO3 26, and D-glucose 10. A block of visual cortex was created by removing the frontal ⅔ portion of the brain and the cerebellum. […] This is repeated 2 additional times with a 1 minute inter-train interval, and the level of LTP was recorded for at least 30 min. Changes in amplitude of the synaptic response were used to measure the extent of LTP, since the amplitude was determined to be the more consistent parameter than the slope of the response. […] LTP was recorded for at least 30 min after induction.

O=C(c1ccc2nonc2c1)N1CCCCC1 [benzo[1,2,5]oxadiazol-5-yl-piperidin-1-yl-methanone]
enhancement of visual cortex long-term potentiation (LTP): dose-dependent facilitation of long-term potentiation in rat visual cortex; also recorded: marked and dose-dependent enhancement of visual cortex LTP
